Assay results: patent US8450479B2, “3-substituted-4-oxo-3,4-dihydro-imidazo[5,1-d][1,2,3,5-tetrazine-8-carboxylic acid amides and their use” (Pharminox Limited, priority 2007, dated 2013)
Several values for one entry are separate records, joined by “and”; a condition that tells them apart may be missing. Equal values may be shown once. Read-outs that look alike come from different tables or passages of the source.

Assays:
Assay in all cases: MTT assay for 7-day toxicity assay
Assay type in all cases: cell-based
[1] = system: Glioma U373VR (MGMT low) (TMZ resistant)
[2] = system: Melanoma SKMEL-28 (MMR proficient)
In short: (§1)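 Cells seeded at 400 cells/well, attached overnight, then exposed to compound at 0.5–1000 μM final for 7 days at 37 °C, 5% CO2. Viability read by MTT, with a day-0 plate fixed at drug addition as reference.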

[3] = system: Colon HT29 (MMR proficient)
In short: as §1

[4] = system: Glioma SNB19VR (MGMT−) (TMZ resistant)
[5] = system: Breast MCF-7 (MMR proficient)
In short: as §1

[6] = Glioma U373VR (MGMT low) (TMZ resistant), read-out: GI50
[7] = Homo sapiens, SK-MEL-28, 168 h, Melanoma SKMEL-28 (MMR proficient), 7-day MTT, single determinations, read-out: GI50
[8] = Homo sapiens, HT-29, 168 h, Colon HT29 (MMR proficient), 7-day MTT, single determinations, read-out: GI50
[9] = 168 h, Glioma SNB19VR (MGMT−, TMZ resistant), 7-day MTT, single determinations, read-out: GI50
[10] = 168 h, Glioma U373VR (MGMT low, TMZ resistant), 7-day MTT, single determinations, read-out: GI50
[11] = Melanoma SKMEL-28 (MMR proficient), 7-day MTT, single determinations, read-out: GI50
[12] = Glioma SNB19VR (MGMT−, TMZ resistant), 7-day MTT, single determinations, read-out: GI50
[13] = Glioma U373VR (MGMT low, TMZ resistant), 7-day MTT, single determinations, read-out: GI50
[14] = Homo sapiens, SK-MEL-28, Melanoma SKMEL-28 (MMR proficient), read-out: GI50
[15] = Melanoma SKMEL-28 (MMR proficient), read-out: GI50
[16] = Colon HT29 (MMR proficient), read-out: GI50
[17] = Homo sapiens, HT-29, Colon HT29 (MMR proficient), read-out: GI50
[18] = Glioma SNB19VR (MGMT−) (TMZ resistant), read-out: GI50
[19] = Homo sapiens, MCF7, Breast MCF-7 (MMR proficient), read-out: GI50

## NC(=O)c1ncn2c(=O)n(CCl)nnc12 [PX-030]
[1]; [6]
  GI50: 28.9 µM and 34.5 µM

## C#CCn1nnc2c(C(N)=O)ncn2c1=O [EE-001, 3-Propargyl-8-carbamoylimidazotetrazin-4-one]
[2]; [7]
  GI50: 48.5 µM
[3]; [8]
  GI50: 21.1 µM
[4]; [9]
  GI50: 54.9 µM
[1]; [10]
  GI50: 40.3 µM

## CCOC(=O)Cn1nnc2c(C(N)=O)ncn2c1=O [PX-016]
[2]; [7]
  GI50: 92.8 µM
[2]; [11]
  GI50: 91.3 µM
[4]; [9]
  GI50: 37.6 µM
[4]; [12]
  GI50: 62 µM
[1]; [10]
  GI50: 57.5 µM
[1]; [13]
  GI50: 71.1 µM

## C[C@H](c1ccccc1)n1nnc2c(C(N)=O)ncn2c1=O [BB-001, (R)-3-(-1-Phenylethyl)-8-carbamoylimidazotetrazin-4-one]
[4]; [9]
  GI50: 46.6 µM
[1]; [10]
  GI50: 63.7 µM

## COCn1nnc2c(C(N)=O)ncn2c1=O [PX-020]
[2]; [14]
  GI50: 56.1 µM
[2]; [15]
  GI50: 55.1 µM
[3]; [16]
  GI50: 49.8 µM
[3]; [17]
  GI50: 59.4 µM
[4]; [18]
  GI50: 25.8 µM and 28.9 µM and 27.8 µM and 29.2 µM and 16.8 µM
[5]; [19]
  GI50: 33.4 µM

## Cn1nnc2c(C(N)=O)ncn2c1=O [TMZ, 3-Methyl-4-oxo-3,4-dihydro-imidazo[5,1-d][1,2,3,5]tetrazine-8-carboxylic acid amide, reference compound]
[2]; [7]
  GI50: 419 µM
[2]; Homo sapiens, SK-MEL-28, Melanoma SKMEL-28 (MMR proficient), average of Table 1, read-out: TMZ GI50 Average
  GI50: 431 µM
[2]; [14]
  GI50: 431 µM
[2]; [11]
  GI50: 443 µM
[3]; Colon HT29 (MMR proficient), 7-day MTT, single determinations, read-out: GI50
  GI50: 578 µM
[3]; [8]
  GI50: 702 µM
[3]; Homo sapiens, HT-29, Colon HT29 (MMR proficient), average of Table 1, read-out: TMZ GI50 Average
  GI50: 640 µM
[3]; [17]
  GI50: 640 µM
[4]; [9]
  GI50: 314 µM
[4]; [18]
  GI50: 280 µM
[4]; [12]
  GI50: 251 µM and 275 µM and 282 µM (2×) and 294 µM and 263 µM
[4]; Glioma SNB19VR (MGMT−, TMZ resistant), average of Table 1, read-out: TMZ GI50 Average
  GI50: 280 µM
[1]; [10]
  GI50: 316 µM
[1]; [6]
  GI50: 289 µM
[1]; [13]
  GI50: 293 µM and 234 µM and 328 µM and 299 µM and 258 µM and 326 µM and 257 µM
[1]; Glioma U373VR (MGMT low, TMZ resistant), average of Table 1, read-out: TMZ GI50 Average
  GI50: 289 µM
[5]; Breast MCF-7 (MMR proficient), 7-day MTT, single determinations
  GI50: 424 µM
[5]; Homo sapiens, MCF7, 168 h, Breast MCF-7 (MMR proficient), 7-day MTT, single determinations
  GI50: 342 µM
[5]; Homo sapiens, MCF7, read-out: TMZ GI50 Average, Breast MCF-7 (MMR proficient), average of Table 1
  GI50: 383 µM
[5]; Homo sapiens, MCF7, Breast MCF-7 (MMR proficient)
  GI50: 383 µM

## C[Si](C)(C)CCOCn1nnc2c(C(N)=O)ncn2c1=O [PX-021]
[2]; [14]
  GI50: 47.1 µM
[2]; [15]
  GI50: 56.8 µM
[3]; [16]
  GI50: 55.8 µM
[3]; [17]
  GI50: 58.5 µM
[5]; [19]
  GI50: 30.3 µM
